{"source": "paper PMC2409895", "about": "“Antitumour efficacy of VEGFR2 tyrosine kinase inhibitor correlates with expression of VEGF and its receptor VEGFR2 in tumour models” (British Journal of Cancer, 2004)", "key": {"[1]": {"assay": "Pharmacokinetics in mice", "type": "in vivo, mouse", "conditions": "for free Cmax: mice, based on 99% protein binding and total plasma concentration"}, "[2]": {"molecular_target": "T1, ErbB2 (Homo sapiens, UniProt P04626)", "T1 construct": "Each kinase assay was conducted using purified recombinant catalytic domain of the enzyme", "T1 sequence (P04626 720-987 limits assumed, species assumed)": "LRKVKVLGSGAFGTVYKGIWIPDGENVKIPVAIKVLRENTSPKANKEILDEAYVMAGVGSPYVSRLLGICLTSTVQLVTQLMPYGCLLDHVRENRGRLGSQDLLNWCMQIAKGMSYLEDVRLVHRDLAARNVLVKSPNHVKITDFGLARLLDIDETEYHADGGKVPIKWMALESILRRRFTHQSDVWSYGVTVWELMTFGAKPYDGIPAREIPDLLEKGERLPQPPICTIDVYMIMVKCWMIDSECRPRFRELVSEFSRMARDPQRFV", "assay": "ErbB2 kinase assay (scintillation proximity)", "type": "biochemical", "procedure": "(§1) Inhibition of several other kinases by small molecules was also determined. Each kinase assay was conducted using purified recombinant catalytic domain of the enzyme. The concentration of ATP and kinase-specific biotinylated peptide in each assay was below the apparent Km of the respective substrate. Inhibition of c-Fms, SRC, and Tie-2 was evaluated by an HTRF format and the inhibition of CDK2, CDK4, EGFR, ErbB2, and Eph-B4 was detected by scintillation proximity assay."}, "[3]": {"molecular_target": "T2, human VEGFR2 kinase (Homo sapiens, UniProt P35968)", "T2 construct": "GST-fusion protein encoding the catalytic carboxyl-terminus of human VEGFR kinase 1, 2, or 3; made in house; host or cells: baculovirus expression system", "T2 sequence (P35968 834-1162 limits assumed)": "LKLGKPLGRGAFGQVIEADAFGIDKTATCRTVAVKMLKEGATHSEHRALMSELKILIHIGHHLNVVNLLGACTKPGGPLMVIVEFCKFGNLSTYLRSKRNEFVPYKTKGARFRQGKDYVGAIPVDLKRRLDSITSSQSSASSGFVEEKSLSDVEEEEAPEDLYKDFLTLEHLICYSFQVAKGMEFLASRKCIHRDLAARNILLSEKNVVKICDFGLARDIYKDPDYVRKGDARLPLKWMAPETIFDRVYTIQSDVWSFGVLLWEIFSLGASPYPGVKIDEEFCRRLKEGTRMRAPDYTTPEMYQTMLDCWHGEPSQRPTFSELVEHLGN", "assay": "VEGFR2 kinase assay (HTRF)", "type": "biochemical", "conditions": "Table 1", "procedure": "Vascular endothelial growth factor receptor kinase assays were carried out in a homogenous time-resolved fluorescence (HTRF) format in 384-well microtitre plates using a purified, baculovirus-expressed GST-fusion protein encoding the catalytic carboxyl-terminus of human VEGFR kinase 1, 2, or 3. Reactions were initiated by the addition of 10 μl of activated VEGFR kinase (1 nM, 0.1 M HEPES pH 7.5, 0.1 mg ml^−1 BSA, and 0.30 mM DTT) to 10 μl of substrate (360 nM biotin-aminohexyl-EEEEYFELVAKKKK-NH2 peptide, 75 μM ATP, 10 mM MgCl2) and 1 μl of small molecule inhibitor at various concentrations. Plates were incubated at room temperature for 60 min, and the reaction was stopped by the addition of 20 μl 100 mM EDTA. Homogenous time-resolved fluorescence reagents (20 μl 15 nM streptavidin-linked allophycocyanin, 1 nM europium-labelled anti-phosphotyrosine antibody in 0.1 M HEPES, pH 7.5, 0.1 mg ml^−1 BSA) were added and plates were incubated for a minimum of 10 min. The fluorescence at 665 nm was measured with a Victor plate reader (Wallac, Shelton, CT, USA) using a time delay of 50 μs. […] Data were fitted with a curve described by: y=((Vmax × x)/(K+x)+Y2), where Vmax is the upper asymptote, Y2 is the Y intercept, and K is the IC50."}, "[4]": {"molecular_target": "T3, SRC (Homo sapiens, UniProt P12931)", "T3 construct": "Each kinase assay was conducted using purified recombinant catalytic domain of the enzyme", "T3 sequence (P12931 270-523 limits assumed, species assumed)": "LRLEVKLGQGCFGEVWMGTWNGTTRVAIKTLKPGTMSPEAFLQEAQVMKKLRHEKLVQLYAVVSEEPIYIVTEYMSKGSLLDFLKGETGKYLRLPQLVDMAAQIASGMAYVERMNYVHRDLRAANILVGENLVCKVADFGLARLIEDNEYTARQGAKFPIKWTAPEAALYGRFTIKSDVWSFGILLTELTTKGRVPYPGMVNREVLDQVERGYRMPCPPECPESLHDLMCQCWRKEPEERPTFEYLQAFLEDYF", "assay": "SRC kinase assay (HTRF)", "type": "biochemical", "procedure": "as §1"}, "[5]": {"molecular_target": "T4, Tie2 (Homo sapiens, UniProt Q02763)", "T4 construct": "Each kinase assay was conducted using purified recombinant catalytic domain of the enzyme", "T4 sequence (Q02763 824-1096 limits assumed, species assumed)": "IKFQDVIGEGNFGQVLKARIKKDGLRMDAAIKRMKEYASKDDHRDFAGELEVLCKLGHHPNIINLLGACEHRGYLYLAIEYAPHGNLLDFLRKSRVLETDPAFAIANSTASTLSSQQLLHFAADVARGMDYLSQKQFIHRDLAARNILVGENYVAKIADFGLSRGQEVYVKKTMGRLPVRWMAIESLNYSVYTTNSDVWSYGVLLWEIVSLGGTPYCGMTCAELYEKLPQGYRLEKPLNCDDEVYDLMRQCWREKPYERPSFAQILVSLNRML", "assay": "Tie-2 kinase assay (HTRF)", "type": "biochemical", "procedure": "as §1"}, "[6]": {"molecular_target": "T5, CDK2 (Homo sapiens, UniProt P24941)", "T5 construct": "Each kinase assay was conducted using purified recombinant catalytic domain of the enzyme", "assay": "CDK2 kinase assay (scintillation proximity)", "type": "biochemical", "procedure": "as §1"}, "[7]": {"molecular_target": "T6, c-Fms (Homo sapiens, UniProt P07333)", "T6 construct": "Each kinase assay was conducted using purified recombinant catalytic domain of the enzyme", "T6 sequence (P07333 582-910 limits assumed)": "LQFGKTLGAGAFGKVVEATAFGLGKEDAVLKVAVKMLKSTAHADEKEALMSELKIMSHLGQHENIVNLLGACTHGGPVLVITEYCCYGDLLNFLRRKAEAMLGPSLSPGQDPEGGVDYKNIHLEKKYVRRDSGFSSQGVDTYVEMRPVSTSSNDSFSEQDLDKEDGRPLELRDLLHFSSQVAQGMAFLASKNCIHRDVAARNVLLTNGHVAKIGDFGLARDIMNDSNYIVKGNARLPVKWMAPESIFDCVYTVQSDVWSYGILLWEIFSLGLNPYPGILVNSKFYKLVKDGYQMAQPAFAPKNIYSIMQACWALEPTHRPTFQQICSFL", "assay": "c-Fms kinase assay (HTRF)", "type": "biochemical", "procedure": "as §1"}, "[8]": {"system": "A375P xenograft", "assay": "A375P tumour xenograft growth inhibition", "type": "in vivo, nude mice", "conditions": "for % Inhibition of tumour growth: vs vehicle", "procedure": "(§2) Tumours were initiated by injection of tumour cell suspension subcutaneously in 8–12-week-old nude mice, except PC3 tumours that were grown in SCID mice (Charles River Laboratories, Wilmington, MA, USA). When tumours reached a volume of 100–200 mm^3, mice were randomised into groups of eight prior to treatment with VEGFR kinase inhibitors. Animals were treated with kinase inhibitors (10, 30, or 100 mg kg^−1) or vehicle (0.5% hydroxypropyl methyl cellulose, 0.1% Tween 80 in sterile water), administered once or twice daily by oral gavage for 2–3 weeks (till the mean tumour volume reached 1000–1500 mm^3). Tumour volume was measured twice weekly by calipers, using the formula (length × width × width × 0.5), where length was the longest diameter across the tumour, and width was the corresponding perpendicular. Tumour growth inhibition was calculated by change in the slopes of tumour growth for control and treated tumours. The oral dose of GW654652 producing 50% inhibition of tumour growth (ED50, mg kg^−1) was estimated by a programme that performed a weighted nonlinear regression analysis of data using the equation: y=Vmax(1−(x/(K+x))), where K is equal to ED50. All animal studies were carried out with the appropriate institutional ethical committee approval and they met the standards of both the US federal regulations and those required by the UKCCCR guidelines ([Workman et al, 1998])."}, "[9]": {"system": "HCT116 xenograft", "assay": "HCT116 tumour xenograft growth inhibition", "type": "in vivo, nude mice", "conditions": "for % Inhibition of tumour growth: vs vehicle", "procedure": "as §2"}, "[10]": {"assay": "Protein binding", "type": "in vitro ADME", "conditions": "mouse, plasma; used to calculate free Cmax in mice"}, "[11]": {"system": "SW620 xenograft", "assay": "SW620 tumour xenograft growth inhibition", "type": "in vivo, nude mice", "conditions": "for % Inhibition of tumour growth: vs vehicle", "procedure": "as §2"}, "[12]": {"conditions": "ratio of IC50 of the kinase to IC50 vs VEGFR-2"}}, "data": [{"smiles": "CCS(=O)(=O)c1ccc(OC)c(Nc2nccc(N(C)c3ccc4c(C)n[nH]c4c3)n2)c1", "note": "[GW654652, N^2-[5-(ethylsulphonyl)-2-methoxyphenyl]-N^4-methyl-N^4-(3-methyl-1H-indazol-6-yl)pyrimidine-2,4-diamine]", "values": [{"measurement": "free Cmax", "setting": "[1]; oral 30 mg kg^−1", "result": 230, "unit": "nM"}, {"measurement": "free Cmax", "setting": "[1]; oral 100 mg kg^−1", "result": 1380, "unit": "nM"}, {"measurement": "pharmacokinetic profile", "setting": "[1]; mouse", "result": "good pharmacokinetic profile"}, {"measurement": "IC50", "setting": "[2]; mean±s.e.", "result": "11500 ± 2740", "unit": "nM"}, {"measurement": "Fold selectivity vs VEGFR-2, ErbB2", "setting": "[2]; [12]", "result": 5125}, {"measurement": "IC50", "setting": "[3]", "result": 2.3, "unit": "nM"}, {"measurement": "IC50", "setting": "[4]; mean±s.e.", "result": "350 ± 240", "unit": "nM"}, {"measurement": "Fold selectivity vs VEGFR-2, SRC", "setting": "[4]; [12]", "result": 156}, {"measurement": "IC50", "setting": "[5]; mean±s.e.", "result": "320 ± 40", "unit": "nM"}, {"measurement": "Fold selectivity vs VEGFR-2, Tie2", "setting": "[5]; [12]", "result": 144}, {"measurement": "IC50", "setting": "[6]", "result": "> 20000", "unit": "nM"}, {"measurement": "Fold selectivity vs VEGFR-2, CDK2", "setting": "[6]; [12]", "result": ">8800"}, {"measurement": "IC50", "setting": "[7]; mean±s.e.", "result": "530 ± 330", "unit": "nM"}, {"measurement": "Fold selectivity vs VEGFR-2, c-Fms", "setting": "[7]; [12]", "result": 237}, {"measurement": "% Inhibition of tumour growth", "setting": "[8]; 30 mg kg^−1 oral once daily", "result": 14, "unit": "%"}, {"measurement": "% Inhibition of tumour growth", "setting": "[8]; 100 mg kg^−1 oral once daily", "result": 49, "unit": "%"}, {"measurement": "ED50", "setting": "[8]; oral dose producing 50% inhibition of tumour growth", "result": "114 ± 54", "unit": "mg/kg/day"}, {"measurement": "% Inhibition of tumour growth", "setting": "[9]; HCT116, 10 mg kg^−1 oral once daily", "result": 18, "unit": "%"}, {"measurement": "% Inhibition of tumour growth", "setting": "[9]; HCT116, 30 mg kg^−1 oral once daily", "result": 59, "unit": "%"}, {"measurement": "% Inhibition of tumour growth", "setting": "[9]; HCT116, 100 mg kg^−1 oral once daily", "result": 71, "unit": "%"}, {"measurement": "ED50", "setting": "[9]; HCT116, oral dose producing 50% inhibition of tumour growth", "result": "21 ± 8", "unit": "mg/kg/day"}, {"measurement": "fraction unbound", "setting": "[10]", "result": 0.01}, {"measurement": "% Inhibition of tumour growth", "setting": "[11]; SW620, 10 mg kg^−1 oral once daily", "result": 12, "unit": "%"}, {"measurement": "% Inhibition of tumour growth", "setting": "[11]; SW620, 30 mg kg^−1 oral once daily", "result": 44, "unit": "%"}, {"measurement": "% Inhibition of tumour growth", "setting": "[11]; SW620, 100 mg kg^−1 oral once daily", "result": 74, "unit": "%"}, {"measurement": "ED50", "setting": "[11]; SW620, oral dose producing 50% inhibition of tumour growth", "result": "46 ± 11", "unit": "mg/kg/day"}]}]}
